# Data from ChEMBL document CHEMBL3797079, “Synergistic reduction of HIV-1 infectivity by 5-azacytidine and inhibitors of ribonucleotide reductase” (Bioorg Med Chem, 2016).
# Activity calls are given as the source filed them. No cut-off for these calls is given here.
# Columns and labels:
# [1] = test system: U373-MAGI; test: Reduction in dATP level in human U373-MAGI cells at 0.5 mM after 6 hrs by LC-MS/MS analysis; format: functional, cell-based
# [2] = test system: U373-MAGI; test: Effect on dRGU-TP level in human U373-MAGI cells at 0.5 mM preincubated for 2 hrs followed by 5-aza-dC addition measured after 4 hrs by LC-MS/MS analysis; format: functional, cell-based
# [3] = test system: U373-MAGI; test: Reduction in dATP level in human U373-MAGI cells at 2 mM after 6 hrs by LC-MS/MS analysis; format: functional, cell-based
# [4] = test system: U373-MAGI; test: Reduction in dTTP level in human U373-MAGI cells at 0.5 mM after 6 hrs by LC-MS/MS analysis; format: functional, cell-based
# [5] = test system: Human immunodeficiency virus 1; test: Potentiation of 5-Aza-C-induced antiviral activity against VSV-G pseudotyped HIV-1 NL4-3 infected in human U373-MAGI cells assessed as decrease in 5-Aza-C EC50 at 500 uM preincubated for 2 hrs followed by 5-Aza-C addition for 2 hrs and subsequent viral infection measured at 72 hrs post infection by flow cytometric analysis relative to control; format: functional
# [6] = test system: U373-MAGI; test: Reduction in dCTP level in human U373-MAGI cells at 2 mM preincubated for 2 hrs followed by 5-aza-dC addition measured after 4 hrs by LC-MS/MS analysis relative to 5-aza-dC; format: functional, cell-based
# [7] = test system: U373-MAGI; test: Increase in 5-aza-dCTP/dCTP ratio in human U373-MAGI cells at 0.5 mM preincubated for 2 hrs followed by 5-aza-dC addition measured after 4 hrs by LC-MS/MS analysis relative to 5-aza-dC; format: functional, cell-based
# [8] = test system: U373-MAGI; test: Reduction in dCTP level in human U373-MAGI cells at 0.5 mM after 6 hrs by LC-MS/MS analysis; format: functional, cell-based
# [9] = test system: U373-MAGI; test: Reduction in dRGU-TP level in human U373-MAGI cells at 2 mM preincubated for 2 hrs followed by 5-aza-C addition measured after 4 hrs by LC-MS/MS analysis; format: functional, cell-based
# [10] = Cytotoxicity against human U373-MAGI cells at 500 uM measured at 72 hrs by Celltiter-Glo luminescent cell viability assay; format: cell-based
# [11] = test system: Human immunodeficiency virus 1; test: Antiviral activity against VSV-G pseudotyped HIV-1 NL4-3 infected in human U373-MAGI cells assessed as reduction in viral infectivity at 500 uM incubated for 4 hrs prior to viral infection measured at 72 hrs post infection by flow cytometric analysis; format: functional, organism-based
# [12] = test system: U373-MAGI; test: Reduction in dCTP level in human U373-MAGI cells at 0.5 mM preincubated for 2 hrs followed by 5-aza-dC addition measured after 4 hrs by LC-MS/MS analysis relative to 5-aza-dC; format: functional, cell-based
# [13] = test system: U373-MAGI; test: Increase in 5-aza-dCTP/dCTP ratio in human U373-MAGI cells at 2 mM preincubated for 2 hrs followed by 5-aza-C addition measured after 4 hrs by LC-MS/MS analysis relative to 5-aza-C; format: functional, cell-based
# [14] = test system: U373-MAGI; test: Reduction in dTTP level in human U373-MAGI cells at 2 mM after 6 hrs by LC-MS/MS analysis; format: functional, cell-based
# [15] = test system: U373-MAGI; test: Reduction in 5-aza-dCTP level in human U373-MAGI cells at 2 mM preincubated for 2 hrs followed by 5-aza-C addition measured after 4 hrs by LC-MS/MS analysis; format: functional, cell-based
# [16] = test system: U373-MAGI; test: Reduction in dCTP level in human U373-MAGI cells at 0.5 mM preincubated for 2 hrs followed by 5-aza-C addition measured after 4 hrs by LC-MS/MS analysis; format: functional, cell-based
# [17] = test system: U373-MAGI; test: Reduction in dCTP level in human U373-MAGI cells at 2 mM preincubated for 2 hrs followed by 5-aza-C addition measured after 4 hrs by LC-MS/MS analysis relative to 5-aza-C; format: functional, cell-based
# [18] = test system: U373-MAGI; test: Reduction in dCTP level in human U373-MAGI cells at 2 mM after 6 hrs by LC-MS/MS analysis; format: functional, cell-based
# [19] = test system: U373-MAGI; test: Increase in 5-aza-dCTP/dCTP ratio in human U373-MAGI cells at 2 mM preincubated for 2 hrs followed by 5-aza-dC addition measured after 4 hrs by LC-MS/MS analysis relative to 5-aza-dC; format: functional, cell-based
# [20] = test system: U373-MAGI; test: Reduction in dRGU-TP level in human U373-MAGI cells at 0.5 mM preincubated for 2 hrs followed by 5-aza-C addition measured after 4 hrs by LC-MS/MS analysis; format: functional, cell-based
# [21] = test system: U373-MAGI; test: Increase in 5-aza-dCTP/dCTP ratio in human U373-MAGI cells at 0.5 mM preincubated for 2 hrs followed by 5-aza-C addition measured after 4 hrs by LC-MS/MS analysis relative to 5-aza-C; format: functional, cell-based
# [22] = test system: U373-MAGI; test: Reduction in dGTP level in human U373-MAGI cells at 2 mM after 6 hrs by LC-MS/MS analysis; format: functional, cell-based
# [23] = test system: U373-MAGI; test: Effect on 5-aza-dCTP level in human U373-MAGI cells at 0.5 mM preincubated for 2 hrs followed by 5-aza-dC addition measured after 4 hrs by LC-MS/MS analysis; format: functional, cell-based
# [24] = test system: U373-MAGI; test: Reduction in 5-aza-dCTP level in human U373-MAGI cells at 0.5 mM preincubated for 2 hrs followed by 5-aza-C addition measured after 4 hrs by LC-MS/MS analysis; format: functional, cell-based
# [25] = test system: U373-MAGI; test: Effect on dRGU-TP level in human U373-MAGI cells at 2 mM preincubated for 2 hrs followed by 5-aza-dC addition measured after 4 hrs by LC-MS/MS analysis; format: functional, cell-based
# [26] = test system: U373-MAGI; test: Effect on 5-aza-dCTP level in human U373-MAGI cells at 2 mM preincubated for 2 hrs followed by 5-aza-dC addition measured after 4 hrs by LC-MS/MS analysis; format: functional, cell-based
# [27] = test system: U373-MAGI; test: Reduction in dGTP level in human U373-MAGI cells at 0.5 mM after 6 hrs by LC-MS/MS analysis; format: functional, cell-based
compound,measurement,setting,value
NC(=O)NO [HYDROXYUREA],Activity,[1],inactive
same,Activity,[2],inactive
same,Activity,[3],Active
same,Activity,[4],inactive
same,fold change (FC),[5],2.5
same,Activity,[6],Active
same,Activity,[7],Active
same,Activity,[8],inactive
same,Activity,[9],inactive
same,Activity,[10],Non-toxic
same,Activity,[11],Active
same,Activity,[12],Active
same,Activity,[13],inactive
same,Activity,[14],inactive
same,Activity,[15],inactive
same,Activity,[16],Active
same,Activity,[17],Active
same,Activity,[18],inactive
same,Activity,[19],Active
same,Activity,[20],inactive
same,Activity,[21],Active
same,Activity,[22],inactive
same,Activity,[23],inactive
same,Activity,[24],inactive
same,Activity,[25],inactive
same,Activity,[26],inactive
same,Activity,[27],inactive
